# Calls of active or inactive are those of the source.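 The calls were made as follows: active = EC50 at or below 10 micromolar; inactive = EC50 above 10 micromolar.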
# Target: 5-hydroxytryptamine receptor 1A (Homo sapiens) (UniProt P08908)
# Assay: human 5-HT1a agonist potency, dose response, cell-based, CHO, Ga15 NFAT-bla reporter (AID 613)
# Details: CHO 5-HT1a Ga15 NFAT-bla reporter, agonist FRET
# Chain of 5-hydroxytryptamine receptor 1A (Homo sapiens) (P08908 whole entry, looked up): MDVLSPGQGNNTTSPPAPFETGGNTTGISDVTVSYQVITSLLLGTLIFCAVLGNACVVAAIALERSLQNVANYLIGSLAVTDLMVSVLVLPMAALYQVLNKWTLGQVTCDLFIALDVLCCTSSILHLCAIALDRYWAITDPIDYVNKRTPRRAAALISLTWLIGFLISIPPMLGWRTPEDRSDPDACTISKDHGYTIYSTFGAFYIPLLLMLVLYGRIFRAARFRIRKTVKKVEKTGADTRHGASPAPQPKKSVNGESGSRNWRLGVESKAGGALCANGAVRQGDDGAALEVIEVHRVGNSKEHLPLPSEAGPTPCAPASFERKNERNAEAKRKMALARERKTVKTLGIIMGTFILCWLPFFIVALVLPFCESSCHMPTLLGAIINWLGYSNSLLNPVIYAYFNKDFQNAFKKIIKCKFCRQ
row,EC50,Structure (SMILES)
1,inactive,Cc1ccc(N=c2oc3cc(O)ccc3cc2C(N)=O)cc1
2,> 99 µM (inactive),COc1ccc(N=c2oc3cc(O)ccc3cc2C(=O)NCC2CCCO2)cc1 (stereo unspecified)
3,> 99 µM (inactive),C=CCOc1cccc(C2C(C(=O)c3ccco3)=C(O)C(=O)N2CCN(CC)CC)c1 (stereo unspecified)
4,> 99 µM (inactive),CN(C)CCCN1C(=O)C(=O)/C(=C(/O)c2ccc3c(c2)OCCO3)C1c1ccccn1 (stereo unspecified)
5,> 99 µM (inactive),COCCOC(=O)C1=C(C)Nc2nc(C)nn2C1c1ccc(F)cc1 (stereo unspecified)
6,> 99 µM (inactive),CCSCCOC(=O)C1=C(C)NC(=O)NC1c1ccc2c(c1)OCO2 (stereo unspecified)
7,> 99 µM (inactive),N#C/C(=C(/O)COC(=O)Cc1c[nH]c2ccccc12)c1nc2ccccc2[nH]1
8,inactive,Cc1ccc(C2C3CN(C(C)C)CC=C3C(C#N)=C(N)C2(C#N)C#N)cc1 (stereo unspecified)
9,> 99 µM (inactive),COc1ccc(OC)c(N=c2oc3cc(O)ccc3cc2C(N)=O)c1
10,inactive,CC(C)N1CC=C2C(C#N)=C(N)C(C#N)(C#N)C(c3ccccc3)C2C1 (stereo unspecified)
11,inactive,CCCCCCc1cc2cc(C(=O)NC)c(=N)oc2cc1O
12,> 99 µM (inactive),CN(C)c1ccc(C2C=C(c3ccc(Cl)cc3OC(F)F)Nc3ncnn32)cc1 (stereo unspecified)
13,> 99 µM (inactive),N#CC1=C(N)N(c2ccccc2)C(c2ccco2)C1(C#N)C#N (stereo unspecified)
14,> 99 µM (inactive),Cc1noc(NS(=O)(=O)c2ccc(N3CC(O)=C(c4ccccc4)C3=N)cc2)c1C
15,inactive,COc1ccccc1N=c1oc2cc(O)ccc2cc1C(=O)NCC1CCCO1 (stereo unspecified)
16,> 99 µM (inactive),CCCCOc1ccc(C2C3CN(C(=O)OCC)CC=C3C(C#N)=C(N)C2(C#N)C#N)cc1OC (stereo unspecified)
17,inactive,COc1ccccc1N=c1oc2cc(O)ccc2cc1C(N)=O
18,> 99 µM (inactive),COc1ccc(N=c2oc3cc(O)ccc3cc2C(=O)NCC2CCCO2)c(OC)c1 (stereo unspecified)
19,> 99 µM (inactive),Nc1nonc1/C(=N/O)N1CCCC1
20,inactive,Cc1cccc(N=c2oc3cc(O)ccc3cc2C(N)=O)c1
21,> 99 µM (inactive),CCCCCCc1cc2cc(-c3nnc(-c4ccccc4O)o3)c(=O)oc2cc1O
22,> 33 µM (inactive),CCOC(=O)c1sc2c(c1C)C(c1cccs1)C1=C(CCCC1=O)N2 (stereo unspecified)
23,> 99 µM (inactive),CCN(CC)c1ccc2cc(C(=O)Nc3ccccn3)c(=O)oc2c1
24,inactive,NC(=O)c1cc2ccc(O)cc2oc1=Nc1ccccc1
25,inactive,NC(=O)c1cc2ccc(O)cc2oc1=NCc1ccccc1
26,> 99 µM (inactive),Cc1ccc(N2C(=O)CC(N3CCN(C4CCc5ccccc5C4)CC3)C2=O)cc1 (stereo unspecified)
